Reference: EP4722212A1, “NOVEL COMPOUND FOR INHIBITING PROTEIN KINASES AND PHARMACEUTICAL COMPOSITION COMPRISING SAME” (Magicbullettherapeutics Co., Ltd., priority 2023, dated 2024)

How the values were obtained:
ACK1 = target: T1, ACK1 (Homo sapiens, UniProt Q07912); assay: Enzyme activity inhibition (Reaction Biology); format: biochemical
T1 construct: purchased Reaction Biology (RBC)
Method: (§1) [* <10 nM: A, <100 nM: B, >100 nM: C]. [Table 7]

BMX = target: T2, BMX (Homo sapiens, UniProt P51813); assay: Enzyme activity inhibition (Reaction Biology); format: biochemical
T2 construct: purchased Reaction Biology (RBC)
T2 sequence (P51813 1-675): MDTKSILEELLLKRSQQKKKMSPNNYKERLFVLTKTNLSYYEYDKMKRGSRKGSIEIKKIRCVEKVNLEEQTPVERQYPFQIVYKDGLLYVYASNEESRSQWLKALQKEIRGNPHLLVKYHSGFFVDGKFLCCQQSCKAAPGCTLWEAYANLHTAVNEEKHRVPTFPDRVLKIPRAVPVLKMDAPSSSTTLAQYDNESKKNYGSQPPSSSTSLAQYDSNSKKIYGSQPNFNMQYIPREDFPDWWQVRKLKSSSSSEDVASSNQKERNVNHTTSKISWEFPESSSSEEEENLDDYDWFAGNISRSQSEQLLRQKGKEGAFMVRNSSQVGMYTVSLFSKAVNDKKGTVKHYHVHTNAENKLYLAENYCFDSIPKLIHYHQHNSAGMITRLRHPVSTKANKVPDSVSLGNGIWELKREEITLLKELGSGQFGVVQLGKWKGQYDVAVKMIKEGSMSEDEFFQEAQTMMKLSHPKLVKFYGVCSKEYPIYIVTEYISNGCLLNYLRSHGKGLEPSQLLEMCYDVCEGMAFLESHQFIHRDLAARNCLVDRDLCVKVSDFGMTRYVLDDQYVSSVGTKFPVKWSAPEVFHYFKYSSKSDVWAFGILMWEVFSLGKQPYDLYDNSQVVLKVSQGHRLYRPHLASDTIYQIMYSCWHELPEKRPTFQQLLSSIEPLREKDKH
Method: as §1

Src = target: T3, Src (Homo sapiens, UniProt P12931); assay: Enzyme activity inhibition (Reaction Biology); format: biochemical
T3 construct: purchased Reaction Biology (RBC)
T3 sequence (P12931 whole entry): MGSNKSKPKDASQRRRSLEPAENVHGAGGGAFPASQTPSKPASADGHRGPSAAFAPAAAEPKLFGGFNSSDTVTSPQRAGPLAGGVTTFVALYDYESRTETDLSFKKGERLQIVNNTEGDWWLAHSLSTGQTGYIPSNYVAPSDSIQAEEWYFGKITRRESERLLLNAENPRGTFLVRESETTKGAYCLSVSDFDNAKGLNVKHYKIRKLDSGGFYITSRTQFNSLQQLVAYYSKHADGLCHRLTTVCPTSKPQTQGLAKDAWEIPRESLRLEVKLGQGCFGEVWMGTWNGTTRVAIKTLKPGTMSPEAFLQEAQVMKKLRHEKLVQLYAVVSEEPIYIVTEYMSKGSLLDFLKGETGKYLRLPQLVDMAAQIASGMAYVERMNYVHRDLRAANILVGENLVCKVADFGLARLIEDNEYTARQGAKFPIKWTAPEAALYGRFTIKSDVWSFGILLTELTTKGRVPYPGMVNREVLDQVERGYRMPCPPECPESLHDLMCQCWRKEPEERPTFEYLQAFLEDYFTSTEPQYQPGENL
Method: as §1

22Rv1 = assay: Cell line inhibition analysis (CCK-8, 72 h); format: cell-based; conditions: Homo sapiens; 22Rv1, 72 hours; read-out: Cell growth inhibition GI50 22Rv1
Method: (§2) C4-2B and 22Rv1 cells were purchased from ATCC and cultured according to the manufacturer's instructions. The cells were seeded in 96-well plates at 7×10^3cells/100 µl/well and allowed to attach for one day. After removing the culture medium, 90 µl/well of fresh culture medium was added, followed by addition of 10 µl/well of culture medium containing compounds at nine concentrations (0.076-500 µM) serially diluted 3-fold and DMSO control to achieve final concentrations of 0-50 µM, and then cultured for 72 hours in a 37 °C CO2 incubator. Cell proliferation after 72 hours was assessed by adding 10 µl/well of CCK-8 solution, orbital shaking for 30 seconds, then incubating at 37 °C CO2 incubator for 2 hours and measuring absorbance at 450 nm using a microplate reader. The measured absorbance values were corrected by subtracting the absorbance of wells containing only culture medium and CCK-8 solution, and GI50 values were calculated using GraphPad Prism 8 software.
(§3) Meanwhile, in a separate 96-well plate, cells were seeded at 7 × 10^3 cells/100 µl/well, allowed to attach for one day, CCK-8 solution was added, and absorbance was measured to establish the 'Growth (%) = 0' value.

C4-2B = assay: Cell line inhibition analysis (CCK-8, 72 h); format: cell-based; conditions: read-out: Cell growth inhibition GI50 C4-2B
Method: as §2, §3

A172 = assay: Cell line inhibition analysis (CCK-8, 72 h); format: cell-based; conditions: Homo sapiens, A 172; read-out: Cell growth inhibition GI50 A172
Method: as §2, §3
(§4) Furthermore, experiments were conducted on A172, A549, HCI-H460, AsPC-1, MIA-Paca-2, DLD-1, HCT-116, HT-29, SW480, SW620, MDA-MB-231, and SKOV3 cell lines using the same method, with results shown in Tables 9 and 10 below [* <1 µM: A, <5 µM: B, <10 µM: C, >10 µM: D].

A549 = assay: Cell line inhibition analysis (CCK-8, 72 h); format: cell-based; conditions: Homo sapiens, read-out: Cell growth inhibition GI50 A549
Method: as §2, §3, §4

AsPC-1 = assay: Cell line inhibition analysis (CCK-8, 72 h); format: cell-based; conditions: Homo sapiens, ASPC1; read-out: Cell growth inhibition GI50 AsPC-1
Method: as §2, §3, §4

DLD-1 = assay: Cell line inhibition analysis (CCK-8, 72 h); format: cell-based; conditions: Homo sapiens, read-out: Cell growth inhibition GI50 DLD-1
Method: as §2, §3, §4

HCI-H460 = assay: Cell line inhibition analysis (CCK-8, 72 h); format: cell-based; conditions: read-out: Cell growth inhibition GI50 HCI-H460
Method: as §2, §3, §4

HCT-116 = assay: Cell line inhibition analysis (CCK-8, 72 h); format: cell-based; conditions: Homo sapiens, read-out: Cell growth inhibition GI50 HCT-116
Method: as §2, §3, §4

HT-29 = assay: Cell line inhibition analysis (CCK-8, 72 h); format: cell-based; conditions: Homo sapiens, read-out: Cell growth inhibition GI50 HT-29
Method: as §2, §3, §4

MDA-MB-231 = assay: Cell line inhibition analysis (CCK-8, 72 h); format: cell-based; conditions: Homo sapiens, read-out: Cell growth inhibition GI50 MDA-MB-231
Method: as §2, §3, §4

MIA-Paca-2 = assay: Cell line inhibition analysis (CCK-8, 72 h); format: cell-based; conditions: Homo sapiens, read-out: Cell growth inhibition GI50 MIA-Paca-2
Method: as §2, §3, §4

SKOV3 = assay: Cell line inhibition analysis (CCK-8, 72 h); format: cell-based; conditions: Homo sapiens, SK-OV-3; read-out: Cell growth inhibition GI50 SKOV3
Method: as §2, §3, §4

SW480 = assay: Cell line inhibition analysis (CCK-8, 72 h); format: cell-based; conditions: Homo sapiens, read-out: Cell growth inhibition GI50 SW480
Method: as §2, §3, §4

SW620 = assay: Cell line inhibition analysis (CCK-8, 72 h); format: cell-based; conditions: Homo sapiens, SW-620; read-out: Cell growth inhibition GI50 SW620
Method: as §2, §3, §4

T1 sequence (Q07912 whole entry): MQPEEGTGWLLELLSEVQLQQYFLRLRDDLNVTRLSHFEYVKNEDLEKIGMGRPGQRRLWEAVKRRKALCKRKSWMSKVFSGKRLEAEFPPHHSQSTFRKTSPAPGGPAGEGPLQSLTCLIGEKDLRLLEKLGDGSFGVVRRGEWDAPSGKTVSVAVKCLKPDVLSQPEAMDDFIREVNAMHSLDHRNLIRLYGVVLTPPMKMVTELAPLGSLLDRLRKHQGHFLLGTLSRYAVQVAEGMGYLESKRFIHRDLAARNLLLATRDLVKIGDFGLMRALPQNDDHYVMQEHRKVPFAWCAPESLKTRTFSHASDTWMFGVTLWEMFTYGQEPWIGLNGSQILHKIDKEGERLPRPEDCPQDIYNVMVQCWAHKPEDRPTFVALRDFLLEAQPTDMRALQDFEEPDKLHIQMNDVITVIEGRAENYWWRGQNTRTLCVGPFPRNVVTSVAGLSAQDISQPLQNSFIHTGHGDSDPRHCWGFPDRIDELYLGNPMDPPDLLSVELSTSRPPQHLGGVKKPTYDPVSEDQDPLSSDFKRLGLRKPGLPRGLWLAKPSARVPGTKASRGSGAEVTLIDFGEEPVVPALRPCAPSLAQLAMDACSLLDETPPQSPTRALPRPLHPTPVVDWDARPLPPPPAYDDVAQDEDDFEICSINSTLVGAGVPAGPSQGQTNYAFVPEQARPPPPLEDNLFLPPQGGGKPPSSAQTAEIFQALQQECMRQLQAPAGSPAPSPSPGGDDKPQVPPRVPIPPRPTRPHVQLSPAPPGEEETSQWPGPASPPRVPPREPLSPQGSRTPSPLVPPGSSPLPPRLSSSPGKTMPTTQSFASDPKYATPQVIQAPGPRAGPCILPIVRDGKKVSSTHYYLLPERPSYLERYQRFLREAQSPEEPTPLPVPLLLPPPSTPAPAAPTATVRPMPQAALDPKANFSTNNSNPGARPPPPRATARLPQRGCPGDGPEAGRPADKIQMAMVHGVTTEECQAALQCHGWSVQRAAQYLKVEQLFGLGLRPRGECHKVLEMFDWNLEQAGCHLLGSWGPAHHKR

Compound | IC50 (ACK1) | IC50 (BMX) | IC50 (Src) | GI50 (22Rv1) | GI50 (A549) | GI50 (AsPC-1) | GI50 (DLD-1) | GI50 (HCI-H460) | GI50 (HCT-116) | GI50 (HT-29) | GI50 (MDA-MB-231) | GI50 (MIA-Paca-2) | GI50 (SKOV3) | GI50 (SW480) | GI50 (SW620) | GI50 (C4-2B) | GI50 (A172)
Cc1ccc(NC(=O)c2cncc(C(F)(F)F)c2)cc1N1Cc2cnc(N[C@@H](C)CO)nc2C2(CC2)C1=O [Compound 131, (S)-N-(3-(2'-((1-hydroxypropan-2-yl)amino)-7'-oxo-5'H-spiro[cyclopropane-1,8'-pyrido[4,3-d]pyrimidine]-6'(7'H)-yl)-4-methylphenyl)-5-(trifluoromethyl)nicotinamide] |  |  |  |  | > 10000 nM |  |  |  |  | > 10000 nM |  |  |  |  |  |  | 1000 to 5000 nM
Cc1ccc(NC(=O)c2cccc(C(F)(F)F)c2)cc1N1Cc2cnc(NC3CC3)nc2C2(CC2)C1=O [Compound 3, N-(3-(2'-(cyclopropylamino)-7'-oxo-5'H-spiro[cyclopropane-1,8'-pyrido[4,3-d]pyrimidine]-6'(7'H)-yl)-4-methylphenyl)-3-(trifluoromethyl)benzamide] | 10 to 100 nM | < 10 nM | 10 to 100 nM | > 10000 nM |  | 1000 to 5000 nM |  |  | 1000 to 5000 nM |  | 1000 to 5000 nM |  |  | 1000 to 5000 nM | 1000 to 5000 nM | 1000 to 5000 nM | 
Cc1ccc(NC(=O)c2cccc(C(F)(F)F)c2)cc1N1Cc2cnc(NCCO)nc2C2(CC2)C1=O [Compound 126, N-(3-(2'-((2-hydroxyethyl)amino)-7'-oxo-5'H-spiro[cyclopropane-1,8'-pyrido[4,3-d]pyrimidine]-6'(7'H)-yl)-4-methylphenyl)-3-(trifluoromethyl)benzamide] |  |  |  |  | 1000 to 5000 nM |  |  |  |  | 5000 to 10000 nM |  |  |  |  |  |  | 1000 to 5000 nM

The next lines start with results.

IC50 (ACK1) | IC50 (BMX) | IC50 (Src) | GI50 (22Rv1) | GI50 (A549) | GI50 (AsPC-1) | GI50 (DLD-1) | GI50 (HCI-H460) | GI50 (HCT-116) | GI50 (HT-29) | GI50 (MDA-MB-231) | GI50 (MIA-Paca-2) | GI50 (SKOV3) | GI50 (SW480) | GI50 (SW620) | Compound | GI50 (C4-2B) | GI50 (A172)
10 to 100 nM | 10 to 100 nM | 10 to 100 nM | 1000 to 5000 nM | > 10000 nM | < 1000 nM | 1000 to 5000 nM | 1000 to 5000 nM | < 1000 nM | > 10000 nM | 1000 to 5000 nM | < 1000 nM | 1000 to 5000 nM | 1000 to 5000 nM | 1000 to 5000 nM | Cc1ccc(NC(=O)c2cccc(C(F)(F)F)c2)cc1N1Cc2cnc(N)nc2C2(CC2)C1=O [Compound 2, N-(3-(2'-amino-7'-oxo-5'H-spiro[cyclopropane-1,8'-pyrido[4,3-d]pyrimidine]-6'(7'H)-yl)-4-methylphenyl)-3-(trifluoromethyl)benzamide] | 1000 to 5000 nM | < 1000 nM
< 10 nM | < 10 nM | < 10 nM | < 1000 nM |  | < 1000 nM |  |  | 1000 to 5000 nM |  | 1000 to 5000 nM |  |  | 1000 to 5000 nM | 1000 to 5000 nM | Cc1ccc(NC(=O)c2cc(F)cc(C(F)(F)F)c2)cc1N1Cc2cnc(N)nc2C2(CC2)C1=O [Compound 7, N-(3-(2'-amino-7'-oxo-5'H-spiro[cyclopropane-1,8'-pyrido[4,3-d]pyrimidine]-6'(7'H)-yl)-4-methylphenyl)-3-fluoro-5-(trifluoromethyl)benzamide] | < 1000 nM | 
< 10 nM | < 10 nM | < 10 nM | 5000 to 10000 nM | > 10000 nM | 1000 to 5000 nM | 1000 to 5000 nM | 1000 to 5000 nM | < 1000 nM | > 10000 nM | 1000 to 5000 nM | 1000 to 5000 nM | 1000 to 5000 nM | 1000 to 5000 nM | < 1000 nM | Cc1ccc(NC(=O)c2cncc(C(F)(F)F)c2)cc1N1Cc2cnc(N)nc2C2(CC2)C1=O [Compound 24, N-(3-(2'-amino-7'-oxo-5'H-spiro[cyclopropane-1,8'-pyrido[4,3-d]pyrimidine]-6'(7'H)-yl)-4-methylphenyl)-5-(trifluoromethyl)nicotinamide] | 1000 to 5000 nM | < 1000 nM
 |  |  |  |  | < 1000 nM |  |  | < 1000 nM |  | < 1000 nM |  |  | < 1000 nM | < 1000 nM | Cc1ccc(NC(=O)c2cccc(C(F)(F)F)c2)cc1N1Cc2cnc(Nc3cnn(CC(F)(F)F)c3)nc2C2(CC2)C1=O [Compound 64, N-(4-methyl-3-(7'-oxo-2'-((1-(2,2,2-trifluoroethyl)-1H-pyrazol-4-yl)amino)-5'H-spiro[cyclopropane-1,8'-pyrido[4,3-d]pyrimidine]-6'(7'H)-yl)phenyl)-3-(trifluoromethyl)benzamide] |  | 
